Test system: 935938-334-R-J1-PDC complex spheroid viability
Assay: Anticancer human tumor 935938-334-R-J1-PDC patient-derived small intestine adenocarcinoma cell line growth inhibition [POLQ]
Conditions: for IC50: curve of first compound; for viability, T/C: stronger effect = lower value
Outline: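 PDC + HUVEC + MSC complex spheroids; POLQ inhibitors ± partner drugs; top conc. at/near clinical Cmax, else 10 microM (SN-38 1 microM), half-log dilutions; 37 degrees C, 5% CO2.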

[1] = second compound 0.0316 µM, first compound 0.0316 µM
[2] = second compound 0.0316 µM, first compound 0.1 µM
[3] = second compound 0.0316 µM, first compound 0.316 µM
[4] = second compound 0.0316 µM, first compound 1 µM
[5] = second compound 0.0316 µM, first compound 3.16 µM
[6] = second compound 0.0316 µM, first compound 10 µM
[7] = second compound 0.1 µM, first compound 0.0316 µM
[8] = second compound 0.1 µM, first compound 0.1 µM
[9] = second compound 0.1 µM, first compound 0.316 µM
[10] = second compound 0.1 µM, first compound 1 µM
[11] = second compound 0.1 µM, first compound 3.16 µM
[12] = second compound 0.1 µM, first compound 10 µM
[13] = second compound 0.316 µM, first compound 0.0316 µM
[14] = second compound 0.316 µM, first compound 0.1 µM
[15] = second compound 0.316 µM, first compound 0.316 µM
[16] = second compound 0.316 µM, first compound 1 µM
[17] = second compound 0.316 µM, first compound 3.16 µM
[18] = second compound 0.316 µM, first compound 10 µM
[19] = second compound 1 µM, first compound 0.0316 µM
[20] = second compound 1 µM, first compound 0.1 µM
[21] = second compound 1 µM, first compound 0.316 µM
[22] = second compound 1 µM, first compound 1 µM
[23] = second compound 1 µM, first compound 3.16 µM
[24] = second compound 1 µM, first compound 10 µM
[25] = second compound 3.16 µM, first compound 0.0316 µM
[26] = second compound 3.16 µM, first compound 0.1 µM
[27] = second compound 3.16 µM, first compound 0.316 µM
[28] = second compound 3.16 µM, first compound 1 µM
[29] = second compound 3.16 µM, first compound 3.16 µM
[30] = second compound 3.16 µM, first compound 10 µM
[31] = second compound 10 µM, first compound 0.0316 µM
[32] = second compound 10 µM, first compound 0.1 µM
[33] = second compound 10 µM, first compound 0.316 µM
[34] = second compound 10 µM, first compound 1 µM
[35] = second compound 10 µM, first compound 3.16 µM
[36] = second compound 10 µM, first compound 10 µM
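Also: spheroids exposed to drugs for seven days before viability read.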
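For viability, T/C in this document: 100% = DMSO vehicle control wells.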

COc1cc2cc(C(=O)CCC(=O)O)sc2cc1OC + COC1C(OC(N)=O)C(O)C(Oc2ccc3c(O)c(NC(=O)c4ccc(O)c(CC=C(C)C)c4)c(=O)oc3c2C)OC1(C)C
IC50 (second compound 0.0316 µM): > 10 µM
IC50 (second compound 0.1 µM): > 10 µM
IC50 (second compound 0.316 µM): > 10 µM
IC50 (second compound 1 µM): > 10 µM
IC50 (second compound 3.16 µM): > 10 µM
IC50 (second compound 10 µM): > 10 µM
viability, T/C [1]: 101%
viability, T/C [2]: 98.3%
viability, T/C [3]: 113%
viability, T/C [4]: 83.7%
viability, T/C [5]: 108%
viability, T/C [6]: 110%
viability, T/C [7]: 103%
viability, T/C [8]: 118%
viability, T/C [9]: 97.9%
viability, T/C [10]: 110%
viability, T/C [11]: 92.4%
viability, T/C [12]: 135%
viability, T/C [13]: 128%
viability, T/C [14]: 131%
viability, T/C [15]: 109%
viability, T/C [16]: 98%
viability, T/C [17]: 112%
viability, T/C [18]: 105%
viability, T/C [19]: 99.2%
viability, T/C [20]: 98.3%
viability, T/C [21]: 90.8%
viability, T/C [22]: 112%
viability, T/C [23]: 108%
viability, T/C [24]: 83.1%
viability, T/C [25]: 106%
viability, T/C [26]: 96.1%
viability, T/C [27]: 96.9%
viability, T/C [28]: 101%
viability, T/C [29]: 109%
viability, T/C [30]: 95.4%
viability, T/C [31]: 171%
viability, T/C [32]: 118%
viability, T/C [33]: 98%
viability, T/C [34]: 101%
viability, T/C [35]: 80.8%
viability, T/C [36]: 109%

O=c1[nH]cc(F)c(=O)[nH]1 + Cc1cccc(N(C)C(=O)C2C(O)CCN2c2nc(C)cc(C(F)(F)F)c2C#N)c1
IC50 (second compound 0.0316 µM): > 10 µM
IC50 (second compound 0.1 µM): > 10 µM
IC50 (second compound 0.316 µM): > 10 µM
IC50 (second compound 1 µM): > 10 µM
IC50 (second compound 3.16 µM): > 10 µM
IC50 (second compound 10 µM): > 10 µM
viability, T/C [1]: 131%
viability, T/C [2]: 113%
viability, T/C [3]: 94.2%
viability, T/C [4]: 84%
viability, T/C [5]: 74.2%
viability, T/C [6]: 56.1%
viability, T/C [7]: 106%
viability, T/C [8]: 127%
viability, T/C [9]: 93%
viability, T/C [10]: 76.7%
viability, T/C [11]: 67.4%
viability, T/C [12]: 67.7%
viability, T/C [13]: 84%
viability, T/C [14]: 122%
viability, T/C [15]: 124%
viability, T/C [16]: 82.4%
viability, T/C [17]: 78%
viability, T/C [18]: 68.2%
viability, T/C [19]: 110%
viability, T/C [20]: 94.9%
viability, T/C [21]: 122%
viability, T/C [22]: 91.7%
viability, T/C [23]: 73.7%
viability, T/C [24]: 64%
viability, T/C [25]: 120%
viability, T/C [26]: 126%
viability, T/C [27]: 97.5%
viability, T/C [28]: 78.3%
viability, T/C [29]: 65.3%
viability, T/C [30]: 67.2%
viability, T/C [31]: 99.1%
viability, T/C [32]: 142%
viability, T/C [33]: 87.1%
viability, T/C [34]: 95%
viability, T/C [35]: 68%
viability, T/C [36]: 65.9%

From PubChem BioAssay AID1963829 (Molecular Pharmacology Branch, DTP, NCI, 2024)
